In the test the target is KAT6A (Homo sapiens (Human), UniProt Q92794). The test is described as follows: KAT assay protocol (SAMDI mass spectrometry), KAT6A. As to conditions: for inhibition at 1 µM: 1 μM compound; for IC50: 1 μM AcCoA; for Ki: 10 μM AcCoA, Morrison equation. The test is classed as biochemical. On the procedure:
Biological Assay Section 1 KAT Assay Protocol:
A. Compound Preparation • 1. Prepare 10 mM stock solutions in 100% DMSO from solid material • 2. Serial dilute 10 mM, 1 mM or 0.1 mM compound stocks 3-fold in 100% DMSO for 11-point dose response
B. Reagent Preparation • 1. Prepare 1× assay buffer containing 10 mM Tris HCL pH 8.0, 2.5 mM NaCl, 0.5 mM EDTA, 0.005% BSG and 0.02% Tween-20 • 2. Dilute Histone peptide (CPC Scientific) and AcCoA (Sigma) together in assay buffer to 2×. • 3. Dilute KAT enzyme in assay buffer to 2×.
C. Enzyme Reaction • 1. Final reaction conditions for each KAT assay in a 20 ul assay reaction volume: • i. […] Add 0.5 ul of diluted compound to the assay plate (384-well V-bottom polypropylene plates) or 0.5 ul of DMSO for control wells. • 3. Add 10 ul of 2× Histone peptide/2× AcCoA mix to the assay plate. • 4. Add 10 ul of 2× enzyme to the assay plate. • 5. Stop the reaction after the indicated time with the addition of 2 ul of 5% formic acid • 6. Each reaction was analyzed using self-assembled monolayer desorption/ionization time-of-flight mass spectrometry (Mrksich, Milan (2008) Mass Spectrometry of Self-Assembled Monolayers: A New Tool for Molecular Surface Science ACS Nano 2008 2 (1), 7-18; SAMDI Tech, Inc. (Chicago, IL)). • 7. Area under the curve (AUC) for both substrate and product peaks was determined for KAT6A at M.W. 2723 [Substrate+H]^+ and 2765 [Product+H]^+ with a +/−1 Da tolerance, respectively. • 8. Percent conversion to product was calculated by: AUCProduct/(AUCSubstrate+AUCProduct).
D. Data Analysis • 1. IC50 values were determined by fitting the % conversion at each inhibitor concentration to the 4-parameter IC50 equation using Pfizer proprietary curve fitting software. • 2. Ki values were determined by fitting the % conversion at each inhibitor concentration to the Morrison equation for tightbinding competitive inhibitors using Pfizer proprietary curve fitting software. Materials
KAT enzymes were expressed using a baculovirus expression system and purified at Pfizer, La Jolla. Histone H3 (1-21) peptide ([…], SEQ ID NO:3) was purchased from CPC Scientific (Sunnyvale, CA). Acetyl coenzyme A was purchased from Sigma-Aldrich (St. Louis, MO). All other biochemical reagents were purchased from Sigma-Aldrich or ThermoFisher Scientific (Waltham, MA).
[…] 10 ul of 2× Histone peptide/AcCoA mix was added to a 384-well V-bottom polypropylene assay plate containing 0.5 ul of serially diluted test compound in 100% dimethyl sulfoxide (DMSO). To start the reaction, 10 ul of 2× enzyme solution was added to the assay plate. KAT assays were terminated after 30-60 minutes with the addition of 2 ul of 5% formic acid. KAT6A used histone H3 (1-21) peptide. The final enzyme concentration for KAT6A was 15 nM. Each reaction was analyzed using self-assembled monolayer desorption/ionization time-of-flight mass spectrometry (Mrksich, Milan (2008) Mass Spectrometry of Self-Assembled Monolayers: A New Tool for Molecular Surface Science ACS Nano 2008 2 (1), 7-18; SAMDI Tech, Inc. (Chicago, IL)).
Area under the curve (AUC) for both substrate and product peaks was determined for KAT6A at M.W. 2723 [Substrate+H]^+ and 2765 [Product+H]^+ with a +/−1 Da tolerance, respectively. Percent conversion to product was calculated by: AUCProduct/(AUCSubstrate+AUCProduct). IC50 values were determined by fitting the % conversion at each inhibitor concentration to the 4-parameter IC50 equation using Pfizer proprietary curve fitting software. Ki values were determined by fitting the % conversion at each inhibitor concentration to the Morrison equation for tightbinding competitive inhibitors using Pfizer proprietary curve fitting software.

Where [1] appears, read: read-out: KAT6A Ki at 10 μM AcCoA.

The term inhibition denotes the relative decrease from the control value, in per cent. Read a low inhibition as a weak effect. Broadly, the IC50 is the midpoint of a concentration-inhibition curve. The Ki is the dissociation constant of the complex between target and ligand, obtained from inhibition or displacement.

Each structure is given as a SMILES string. Where two headings read alike, the source gives them in different places.

Sequence of KAT6A (Q92794 whole entry): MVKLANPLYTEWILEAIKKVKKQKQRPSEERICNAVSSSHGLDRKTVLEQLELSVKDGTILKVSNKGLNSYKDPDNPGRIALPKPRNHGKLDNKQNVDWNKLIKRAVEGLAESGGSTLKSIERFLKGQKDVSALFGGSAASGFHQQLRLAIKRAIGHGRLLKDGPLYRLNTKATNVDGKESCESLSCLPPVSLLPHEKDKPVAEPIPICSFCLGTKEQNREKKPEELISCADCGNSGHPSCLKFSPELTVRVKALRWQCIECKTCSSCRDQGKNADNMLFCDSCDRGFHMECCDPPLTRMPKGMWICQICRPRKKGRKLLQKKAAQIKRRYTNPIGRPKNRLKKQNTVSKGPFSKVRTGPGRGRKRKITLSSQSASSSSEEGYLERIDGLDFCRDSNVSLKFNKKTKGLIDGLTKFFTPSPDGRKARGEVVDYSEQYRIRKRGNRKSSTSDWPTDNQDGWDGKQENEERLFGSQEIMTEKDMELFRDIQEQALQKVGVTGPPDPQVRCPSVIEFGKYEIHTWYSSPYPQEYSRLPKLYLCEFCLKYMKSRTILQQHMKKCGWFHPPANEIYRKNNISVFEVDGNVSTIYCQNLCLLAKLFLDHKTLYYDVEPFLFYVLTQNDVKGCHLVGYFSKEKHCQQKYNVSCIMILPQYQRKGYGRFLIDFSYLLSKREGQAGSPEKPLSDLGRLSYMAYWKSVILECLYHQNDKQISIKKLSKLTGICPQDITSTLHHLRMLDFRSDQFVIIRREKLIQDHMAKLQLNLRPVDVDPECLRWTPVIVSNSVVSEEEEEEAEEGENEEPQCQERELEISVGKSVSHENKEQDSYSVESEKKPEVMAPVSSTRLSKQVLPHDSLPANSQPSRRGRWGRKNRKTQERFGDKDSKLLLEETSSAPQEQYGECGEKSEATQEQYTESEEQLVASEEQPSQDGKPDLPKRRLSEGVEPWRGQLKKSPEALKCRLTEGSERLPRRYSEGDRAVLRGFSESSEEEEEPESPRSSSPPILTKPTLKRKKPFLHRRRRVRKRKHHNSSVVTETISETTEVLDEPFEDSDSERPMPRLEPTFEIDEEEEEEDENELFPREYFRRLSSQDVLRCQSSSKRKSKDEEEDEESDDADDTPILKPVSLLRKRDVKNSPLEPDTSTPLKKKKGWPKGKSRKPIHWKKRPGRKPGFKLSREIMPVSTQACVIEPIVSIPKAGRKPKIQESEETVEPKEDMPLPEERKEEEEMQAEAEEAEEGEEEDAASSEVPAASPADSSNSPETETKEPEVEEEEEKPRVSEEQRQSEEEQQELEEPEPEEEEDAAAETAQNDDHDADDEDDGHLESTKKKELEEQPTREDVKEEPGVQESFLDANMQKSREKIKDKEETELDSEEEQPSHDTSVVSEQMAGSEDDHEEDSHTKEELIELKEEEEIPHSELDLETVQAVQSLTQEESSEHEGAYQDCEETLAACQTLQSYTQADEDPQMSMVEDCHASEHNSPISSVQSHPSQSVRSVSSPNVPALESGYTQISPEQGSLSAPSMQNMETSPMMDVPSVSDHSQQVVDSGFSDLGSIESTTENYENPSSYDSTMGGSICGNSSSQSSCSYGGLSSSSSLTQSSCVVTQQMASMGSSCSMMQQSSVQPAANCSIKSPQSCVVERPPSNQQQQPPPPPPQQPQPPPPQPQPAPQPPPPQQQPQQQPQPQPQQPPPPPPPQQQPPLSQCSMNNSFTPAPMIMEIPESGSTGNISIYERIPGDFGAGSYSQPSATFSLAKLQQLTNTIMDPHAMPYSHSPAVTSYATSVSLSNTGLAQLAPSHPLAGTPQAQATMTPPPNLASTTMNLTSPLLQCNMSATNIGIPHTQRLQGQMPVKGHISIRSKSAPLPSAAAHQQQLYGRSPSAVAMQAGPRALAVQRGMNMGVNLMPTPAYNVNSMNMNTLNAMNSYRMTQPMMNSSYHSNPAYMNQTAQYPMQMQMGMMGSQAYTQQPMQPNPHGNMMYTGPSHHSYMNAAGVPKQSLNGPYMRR

Compound `COc1cc(Cn2cccn2)cc2onc(NS(=O)(=O)CC3(C)CC3)c12` [Example 39] had an inhibition at 1 µM of 52%.
`COc1cc(Cn2cccn2)cc2onc(NS(=O)(=O)CC3(C(F)(F)F)CC3)c12` [Example 34]: 1 µM produced 46% inhibition.
Still for that read-out and setting: in the case of `COc1cc(Cn2cccn2)cc2onc(NS(=O)(=O)CC3(C(F)F)CCCC3)c12` [Example 65] it was 95%.
Compound `COc1cc(Cn2cccn2)cc2onc(NS(=O)(=O)C[C@H]3C[C@@H](C)C3)c12` [Example 133] showed an IC50 (KAT6A IC50 at 1 μM AcCoA) of 40 nM.
`COc1cc(Cn2cccn2)cc2onc(NS(=O)(=O)CC3CCC3)c12` [Example 17] yielded an inhibition at 1 µM of 83%. Under “KAT6A Ki at 10 μM AcCoA”, the affinity, expressed as Ki, was 82.4 nM.
With `COc1cc(Cn2cccn2)cc2onc(NS(=O)(=O)C3CC(C)(C)C3)c12` [Example 84], the inhibition at 1 µM came to 62%.
On the same count and under the same terms, then `COc1cc(Cn2cccn2)cc2onc(NS(=O)(=O)C3CC(C)CC(C)C3)c12` (centres unmarked) [Example 62], with 97%.
As to `COc1cc(Cn2cccn2)cc2onc(NS(=O)(=O)CC3CC4CCC3C4)c12` (centres unmarked) [Example 30], 1 µM produced 98% inhibition. This compound also displayed a Ki (KAT6A Ki at 10 μM AcCoA) of 7.32 nM.
As for `COc1cc(Cn2cccn2)cc2onc(NS(=O)(=O)C3CCC(=O)CC3)c12` [Example 80], 1 µM produced 60% inhibition.
In turn, `COc1cc(Cn2cccn2)cc2onc(NS(=O)(=O)CCC3CC3)c12` [Example 23] registered an inhibition at 1 µM of 92%. Further, the affinity (KAT6A Ki at 10 μM AcCoA) corresponds to a Ki of 31.6 nM.
In the same order, the values of `COc1cc(Cn2cccn2)cc2onc(NS(=O)(=O)C3CCOC(C)C3)c12` (centres unmarked) [Example 89] are 84% and 87.3 nM.
`COc1cc(Cn2cccn2)cc2onc(NS(=O)(=O)CC3CCCCC3(F)F)c12` (centres unmarked) [Example 41] came in with an inhibition at 1 µM of 91%.
Turning to `COc1cc(Cn2cccn2)cc2onc(NS(=O)(=O)N(C)C3CCCCC3)c12` [Example 132], the midpoint of inhibition (KAT6A IC50 at 1 μM AcCoA), the IC50, lay at 9 nM. The same compound showed a Ki (KAT6A Ki at 10 μM AcCoA) of 4 nM.
Regarding `COc1cc(Cn2cccn2)cc2onc(NS(=O)(=O)CC3C[C@@H]4[C@H](C3)C4(F)F)c12` (some centres unmarked) [Example 64], the inhibition at 1 µM worked out at 92%. This compound also returned a Ki (KAT6A Ki at 10 μM AcCoA) of 28 nM.
Turning to `COc1cc(Cn2cccn2)cc2onc(NS(=O)(=O)CC(C)C)c12` [Example 128], under “read-out: KAT6A IC50 at 1 μM AcCoA”, the IC50 was determined as 128 nM.
Consider `COc1cc(Cn2cccn2)cc2onc(NS(=O)(=O)CC3(OC)CCCCC3)c12` [Example 52], for which testing at 1 µM gave an inhibition of 66%. In addition, affinity (KAT6A Ki at 10 μM AcCoA) was put at a Ki of 127 nM.
The compound `COc1cc(Cn2cccn2)cc2onc(NS(=O)(=O)CCCC3CCOC3)c12` (centres unmarked) [Example 106] came in with an inhibition at 1 µM of 48%.
`COc1cc(Cn2cccn2)cc2onc(NS(=O)(=O)CC3CCCOC3)c12` (centres unmarked) [Example 3] displayed an IC50 (KAT6A IC50 at 1 μM AcCoA) of 301 nM.
In turn, `COc1cc(Cn2cccn2)cc2onc(NS(=O)(=O)C3CC4(CCC4)C3)c12` [Example 33] registered an inhibition at 1 µM of 65%.
Still for that read-out and setting: then `COc1cc(Cn2cccn2)cc2onc(NS(=O)(=O)CC3CCOC(C)C3)c12` (centres unmarked) [Example 103], with 75%; and `COc1cc(Cn2cccn2)cc2onc(NS(=O)(=O)C3CCCCCC3)c12` [Example 59], with 48%; and `COc1cc(Cn2cccn2)cc2onc(NS(=O)(=O)C3CCCN(C(C)=O)C3)c12` (centres unmarked) [Example 97], with 83%.
Compound `COc1cc(Cn2cccn2)cc2onc(NS(=O)(=O)CC3CCCC3)c12` [Example 9] yielded an inhibition at 1 µM of 91%. The compound also displayed a Ki (KAT6A Ki at 10 μM AcCoA) of 60.1 nM.
Compound `CC[C@@H]1C[C@@H]1S(=O)(=O)Nc1noc2cc(Cn3cccn3)cc(OC)c12` [Example 26] gave an inhibition at 1 µM of 71%.
On the same count and under the same terms, in the case of `COc1cc(Cn2cccn2)cc2onc(NS(=O)(=O)C3CCOC3=O)c12` (centres unmarked) [Example 99] it was 83%.
Same read-out and setting: then `COc1cc(Cn2cccn2)cc2onc(NS(=O)(=O)C3CCN(C(C)=O)CC3)c12` [Example 94], with 76%.
With `COc1cc(Cn2cccn2)cc2onc(NS(=O)(=O)[C@H]3C[C@@H]3c3ccc(F)cc3)c12` [Example 27], the Ki (KAT6A Ki at 10 μM AcCoA) stood at 13.8 nM.
In turn, `COc1cc(Cn2cccn2)cc2onc(NS(=O)(=O)CC3(C)CCCC3)c12` [Example 61] registered an inhibition at 1 µM of 55%.
Take `COc1cc(Cn2cccn2)cc2onc(NS(=O)(=O)CCC3CC3(F)F)c12` (centres unmarked) [Example 78]: the inhibition at 1 µM was 77%. The compound further gave a Ki (KAT6A Ki at 10 μM AcCoA) of 45.8 nM.
`COc1cc(Cn2cccn2)cc2onc(NS(=O)(=O)[C@H]3CCCN(C(=O)OCc4ccccc4)C3)c12` [Example 88]: the Ki (KAT6A Ki at 10 μM AcCoA) was determined as 99.4 nM.
`COCC1(S(=O)(=O)Nc2noc3cc(Cn4cccn4)cc(OC)c23)CCC1` [Example 74] displayed an inhibition at 1 µM of 92%.
`COc1cc(Cn2cccn2)cc2onc(NS(=O)(=O)CC3CCC(F)CC3)c12` (centres unmarked) [Example 8] registered an inhibition at 1 µM of 77%.
Compound `COc1cc(Cn2cccn2)cc2onc(NS(=O)(=O)CC3CCCC(F)C3)c12` (centres unmarked) [Example 54] showed an inhibition at 1 µM of 82%.
With `COc1cc(Cn2cccn2)cc2onc(NS(=O)(=O)CC3CCCCO3)c12` (single isomer, unassigned; (-)) [Example 2, (−)-N-{4-methoxy-6-[(1H-pyrazol-1-yl)methyl]-1,2-benzoxazol-3-yl}-1-(oxan-2-yl)methanesulfonamide], the IC50 (KAT6A IC50 at 1 μM AcCoA) stood at 270 nM.
Take `COc1cc(Cn2cccn2)cc2onc(NS(=O)(=O)[C@H]3CCC[C@H]3OC)c12` [Example 18]: at 1 µM the inhibition was 83%. Further, the Ki under setting [1] was found to be 71.9 nM.
`COc1cc(Cn2cccn2)cc2onc(NS(=O)(=O)CC3(C#N)CCCCC3)c12` [Example 40]: the inhibition at 1 µM is 58%.
Same read-out and setting: then `COc1cc(Cn2cccn2)cc2onc(NS(=O)(=O)C3CCCC3C)c12` (centres unmarked) [Example 72], with 70%.
Consider `COc1cc(Cn2cccn2)cc2onc(NS(=O)(=O)C3CCCC3)c12` [Example 20], for which the Ki under setting [1] is 36.5 nM.
`COc1cc(Cn2cccn2)cc2onc(NS(=O)(=O)CCC3(C)CC3)c12` [Example 53] gave an inhibition at 1 µM of 97%.
Compound `COc1cc(Cn2cccn2)cc2onc(NS(=O)(=O)CC3CCOCC3)c12` [Example 7, N-{4-methoxy-6-[(1H-pyrazol-1-yl)methyl]-1,2-benzoxazol-3-yl}-1-(oxan-4-yl)methanesulfonamide] returned an inhibition at 1 µM of 51%. The compound also returned a Ki (KAT6A Ki at 10 μM AcCoA) of 177 nM.
`COc1cc(Cn2cccn2)cc2onc(NS(=O)(=O)CC3CCCC(F)(F)C3)c12` (centres unmarked) [Example 19] had an inhibition at 1 µM of 81%. The compound further yielded a Ki (KAT6A Ki at 10 μM AcCoA) of 65.3 nM.
Compound `COc1cc(Cn2cccn2)cc2onc(NS(=O)(=O)CCCC3CCOCC3)c12` [Example 104] displayed an inhibition at 1 µM of 80%.
Still for that read-out and setting: then `COc1cc(Cn2cccn2)cc2onc(NS(=O)(=O)CC3CC(OC)C3)c12` (centres unmarked) [Example 69], with 78%; and `COc1cc(Cn2cccn2)cc2onc(NS(=O)(=O)C3CC(C)C3)c12` (centres unmarked) [Example 73], with 96%.
The compound `COc1cc(Cn2cccn2)cc2onc(NS(=O)(=O)CC3CCCO3)c12` (centres unmarked) [Example 5] had an IC50 (KAT6A IC50 at 1 μM AcCoA) of 323 nM.
The compound `COc1cc(Cn2cccn2)cc2onc(NS(=O)(=O)CCC3CCCCC3)c12` [Example 31] displayed an inhibition at 1 µM of 93%. The inhibition constant Ki (KAT6A Ki at 10 μM AcCoA) was determined as 4.94 nM.
In the same order, the values of `COc1cc(Cn2cccn2)cc2onc(NS(=O)(=O)CC34CCC(CC3)CC4)c12` [Example 24] are 93% and 19.5 nM.
`COc1cc(Cn2cccn2)cc2onc(NS(=O)(=O)CC3CCCC4(CCC4)O3)c12` (centres unmarked) [Example 120] showed an inhibition at 1 µM of 35%.

Values taken from patent US12545669B2, “Cycloalkyl and heterocycloalkyl benzisoxazole sulfonamide derivatives” (Pfizer Inc., priority 2019, dated 2026).
